Earlier results as cited in US7718642B2, “AIDS prophylactic lubricating composition” (priority 1993, dated 2010).

Tests used:
[1] = in vivo
[2] = test system: sperm cells; settings: diffusion into cervical mucous
[3] = test system: viruses
[4] = previous studies (Int J STD & AIDS); read-out: CC50 value (50% toxic dose)
[5] = test system: HIV
[6] = test system: HIV; settings: used as contraceptive during sexual relations; J. Kreiss et al, JAMA 1992

| Compound | Undesirable side effects [1] | Concentration that restricts penetration of sperm cells and causes loss of mobility [2] | Concentration that effectively destroys the envelope of viruses [3] | CC50 [4] | selectivity value ([5]; CC50/IC50, previous studies (Int J STD & AIDS)) | IC50 ([5]; previous studies (Int J STD & AIDS), read-out: IC50 value (50% inhibitory dose)) | Prevention of HIV transmission [6] |
| --- | --- | --- | --- | --- | --- | --- | --- |
| [H]/N=C(\N/C(=N/[H])NCCCCCCNC(=N)NC(=N)Nc1ccc(Cl)cc1)Nc1ccc(Cl)cc1 [chlorhexidine] | does not produce any undesirable side effects | above 0.1% | above 0.1% | 1300 nM | 5.2 | 250 nM |  |
| nonoxynol-9 |  |  |  |  |  |  | did not prevent HIV transmission |
